In US20200256853A1, “Models of Reconstructed Sensitive Skin” (Laboratoires Expanscience, priority 2017, published 2020):

Legend:
Assay type in all cases: cell-based
[1] = system: reconstructed Sensitive Skin model (reconstructed human epidermises treated with 0.6% lactic acid); assay: Determinations of released inflammatory mediators (ELISA) in reconstructed Sensitive Skin model, Example 3
Procedure: (§1) Reconstructed human epidermises were obtained from the keratinocytes of a […] donor using the method derived from Poumay et al. (Arch Dermatol Res 2004; 296:203-11). After 2 days of immersion culture, the reconstructed human epidermises were cultured at the air/liquid interface for 10 days.
(§2) Epidermises at differentiation day 10 was treated or not (control) systemically with the test compounds and incubated for 24 hours.
(§3) The amount of inflammatory mediators IL-1alpha (IL1α), IL-8 and PGE2 present in skin culture supernatants was evaluated using ELISA kits (R&D Systems). • Evaluations of intracellular inflammatory markers IL-1α, IL8 and IL1-RA (n=2)

[2] = system: reconstructed human epidermises; assay: Immunolabeling of involucrin in reconstructed epidermis; conditions: Lactic acid 0.6%; fluorescence intensity vs. control
Procedure: Reconstructed human epidermises were obtained from the keratinocytes of a donor using the method derived from Poumay et al. (Arch Dermatol Res 2004; 296:203-11). After 2 days of immersion culture, the reconstructed human epidermises were cultured at the air/liquid interface for 10 days. […] On the other hand, involucrin was stained by immunofluorescence (Alexa-488; green dye), the nuclei were stained by propidium iodide (red dye). The involucrin staining was quantified by measuring the fluorescence intensity reported on the surface of the living layers of the epidermis.

[3] = system: reconstructed human epidermises; assay: Viability of reconstructed epidermises (MTT); conditions: Lactic acid 0.6% topical, 48 h; control 100%; donor
Procedure: (§4) Reconstructed human epidermises were obtained from the keratinocytes of a donor using the method derived from Poumay et al. (Arch Dermatol Res 2004; 296:203-11). After 2 days of immersion culture, the reconstructed human epidermises were cultured at the air/liquid interface for 10 days.
The viability of the epidermises was assessed by an MTT metabolism test (n=2). The optical density (OD) at 540 nm is proportional to the amount of living cells and their metabolic activity.

[4] = system: reconstructed human epidermises; assay: Determination of polyunsaturated fatty acids (PUFAs) in reconstructed epidermises (GC/MS), Example 2; conditions: Lactic acid 0.6%
Procedure: as §4
(§5) Screening of polyunsaturated fatty acids (PUFAs) expressed by the epidermis was carried out by GC/MS analysis of samples obtained after grinding the epidermises (n=2).
(§6) The amounts were normalized by C16:0 (palmitic acid), which is representative of the overall lipid content of the epidermis.

[5] = system: reconstructed human epidermises; assay: Intracellular determinations of inflammatory markers (ELISA), Example 2; conditions: Lactic acid 0.6%
Procedure: as §4
(§7) Intracellular amounts of IL-1α, IL8 and IL1-RA were determined by ELISA (R&D Systems) in ground epidermis (n=2).

[6] = system: reconstructed human epidermises; assay: Gene expression in reconstructed epidermises (qRT-PCR); conditions: Lactic acid 0.6%; control = 100
Procedure: Reconstructed human epidermises were obtained from the keratinocytes of a donor using the method derived from Poumay et al. (Arch Dermatol Res 2004; 296:203-11). After 2 days of immersion culture, the reconstructed human epidermises were cultured at the air/liquid interface for 10 days. […] Gene expression of inflammatory markers and of markers of innate immunity and defense was evaluated by real-time quantitative PCR (qRT-PCR) on messenger RNAs extracted from epidermis (n=2). Gene expression of the innate immunity and defense markers, beta-defensin 2 hBD2, or Toll-like receptor 2, was also evaluated in the same way. The gene expression analysis was performed in duplicate using a PCR array. The quantitative analysis of gene expression was based on the analysis of threshold cycles; relative expression (RE) was expressed in arbitrary units according to the following formula: RE=(½ number of cycles)×10^6

[7] = system: reconstructed Sensitive Skin model (reconstructed human epidermises treated with 0.6% lactic acid); assay: Intracellular measurements of inflammatory mediators (ELISA) in reconstructed Sensitive Skin model, Example 3
Procedure: as §7, §1, §2, §3
(§8) Same protocol as described in Example 2. • Determination of Poly-Unsaturated Fatty Acids (PUFAs) (n=2)

[8] = system: reconstructed human epidermises; assay: Determinations of released inflammatory markers, Example 2; conditions: Lactic acid 0.6%
Procedure: Reconstructed human epidermises were obtained from the keratinocytes of a donor using the method derived from Poumay et al. (Arch Dermatol Res 2004; 296:203-11). After 2 days of immersion culture, the reconstructed human epidermises were cultured at the air/liquid interface for 10 days. […] The amount of inflammatory markers present in culture supernatants was assessed (n=6) using CBA kits (BD Biosciences) for IL-1 alpha (IL1α) and IL-8; and ELISA kits for VEGF (R&D Systems) and PGE2 (Enzo).

[9] = system: reconstructed Sensitive Skin model (reconstructed human epidermises treated with 0.6% lactic acid); assay: Determination of PUFAs (GC/MS) in reconstructed Sensitive Skin model, Example 3
Procedure: as §5, §6, §1, §2, §8
Same protocol as described in Example 2.

[10] = Lactic acid 0.6%, change vs. control

For `CC(O)C(=O)O` (stereo not shown) [Lactic acid, lactic acid], the “Released IL1-alpha Mean ± Standard deviation” value ([1]; Lactic acid 0.6% topical, 48 h) was 68 ± 34 pg/mL, the “Released IL8 Mean ± Standard deviation” value ([1]; Lactic acid 0.6% topical, 48 h) was 209 ± 40 pg/mL and the “Released PGE2 Mean ± Standard deviation” value ([1]; Lactic acid 0.6% topical, 48 h) was 197 ± 79 pg/mL. For the same molecule, the “Released IL1-alpha Change” value [1, 10] was “+511%”, the “Released IL8 Change” value [1, 10] was “+169%” and the “Released PGE2 Change” value [1, 10] was “+584%”. The “Decrease in the expression level of involucrin” value [2] was −22%, the Viability [3] was 66% and the “C18:1 Change vs. control” value [4] was “+20%”. For the same molecule, the “C18:1 amount normalized to C16:0” value [4] was 0.226, the “C18:2 LA Change vs. control” value [4] was “+19%” and the “C18:2 LA amount normalized to C16:0” value [4] was 0.216. For the same molecule, the “C20:4 AA Change vs. control” value [4] was “+42%”, the “C20:4 AA amount normalized to C16:0” value [4] was 0.050 and the “Intracellular IL1-RA Change vs. control” value [5] was “+1242%”. For the same molecule, the “Intracellular IL1-alpha Change vs. control” value [5] was “+806%”, the “Intracellular IL8 Change vs. control” value [5] was “+390%” and the “Intracellular IL1-RA” value ([5]; 48 h) was 31243 pg/mg protein. The “Intracellular IL1-alpha” value ([5]; 48 h) was 794 pg/mg protein, the “Intracellular IL8” value ([5]; 48 h) was 52.1 pg/mg protein and the ADCYAP1 gene expression [6] was 117. It also gave a DEFB4A gene expression [6] of 6, an IL1A gene expression [6] of 240 and an IL1B gene expression [6] of 195. The IL1RN gene expression [6] was 144, the IL8 gene expression [6] was 649 and the PLA2G2F2F gene expression [6] was 129. The PTGS2 gene expression [6] was 182, the THBS1 gene expression [6] was 181 and the TLR2 gene expression [6] was 54. For the same molecule, the TNF gene expression [6] was 105, the VEGF-A gene expression [6] was 138 and the “Intracellular IL1-alpha Mean ± SD” value ([7]; Lactic acid 0.6% topical, 48 h) was 1044 ± 123.0 pg/mg protein. For the same molecule, the “Intracellular IL1RA Mean ± SD” value ([7]; Lactic acid 0.6% topical, 48 h) was 25750 ± 1974 pg/mg protein, the “Intracellular IL8 Mean ± SD” value ([7]; Lactic acid 0.6% topical, 48 h) was 79.20 ± 7.715 pg/mg protein and the “Intracellular IL1-alpha Change” value [7, 10] was “+277%”. For the same molecule, the “Intracellular IL1RA Change” value [7, 10] was “+394%”, the “Intracellular IL8 Change” value [7, 10] was “+113%” and the “Released IL1-alpha Change vs. control” value [8] was “+221%”. The “Released IL8 Change vs. control” value [8] was “+84%”, the “Released PGE2 Change vs. control” value [8] was “+207%” and the “Released VEGF Change vs. control” value [8] was “+156%”. The “Released IL1-alpha” value ([8]; 48 h, culture supernatant) was 23 ± 7 pg/mL, the “Released IL8” value ([8]; 48 h, culture supernatant) was 120 ± 18 pg/mL and the “Released PGE2” value ([8]; 48 h, culture supernatant) was 149 ± 36 pg/mL. The “Released VEGF” value ([8]; 48 h, culture supernatant) was 1109 ± 45 pg/mL, the “C18:1 Mean ± SD, amount normalized to C16:0” value ([9]; Lactic acid 0.6% topical, 48 h) was 0.3880 and the “C18:2 LA Mean ± SD, amount normalized to C16:0” value ([9]; Lactic acid 0.6% topical, 48 h) was 0.2130. The “C20:4 AA Mean ± SD, amount normalized to C16:0” value ([9]; Lactic acid 0.6% topical, 48 h) was 0.0575, the “C18:1 Change” value [9, 10] was “+110%” and the “C18:2 LA Change” value [9, 10] was “+134%”. The “C20:4 AA Change” value [9, 10] was “+113%”.
